Data reported in PubChem BioAssay AID1645865 (Buhrlage Lab, Dana-Farber Cancer Institute and Novartis …, 2021).
Calls of active or inactive are those of the source.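 How the source made its calls: active means maximal inhibition of the USP30 enzyme reaching 30% or more across the dose series; inactive means the rest.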

Each compound was assayed against Ubiquitin carboxyl-terminal hydrolase 30 (Homo sapiens) (UniProt Q70CQ3) (assay: ubiquitin-specific protease 30 DUB inhibitors, concentration-effect, biochemical, validation of primary actives (AID 1645865)). Settings: purified USP30, Ub-rhodamine cleavage, fluorescence, 2 h.
Sequence of Ubiquitin carboxyl-terminal hydrolase 30 (Homo sapiens) (Q70CQ3 whole entry, looked up): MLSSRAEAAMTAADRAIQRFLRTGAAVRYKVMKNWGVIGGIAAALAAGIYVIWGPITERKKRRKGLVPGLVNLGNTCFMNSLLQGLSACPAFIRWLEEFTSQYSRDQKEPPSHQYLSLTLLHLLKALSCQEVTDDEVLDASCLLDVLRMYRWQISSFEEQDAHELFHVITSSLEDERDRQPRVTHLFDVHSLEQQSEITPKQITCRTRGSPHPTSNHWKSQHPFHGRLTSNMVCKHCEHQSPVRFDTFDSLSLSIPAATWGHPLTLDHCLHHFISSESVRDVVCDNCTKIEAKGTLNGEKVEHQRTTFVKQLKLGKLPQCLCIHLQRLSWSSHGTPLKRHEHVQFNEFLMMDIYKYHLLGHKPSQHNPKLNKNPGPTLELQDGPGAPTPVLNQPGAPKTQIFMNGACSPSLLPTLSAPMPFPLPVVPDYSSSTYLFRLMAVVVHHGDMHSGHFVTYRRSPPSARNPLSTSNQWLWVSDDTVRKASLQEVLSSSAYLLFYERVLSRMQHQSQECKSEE

IC50, inactive:
Cc1noc(-c2cccn(Cc3cccc(C(F)(F)F)c3)c2=O)n1 > 50 µM
N#C/C(=C\c1ccc(OCc2cccc(C(=O)O)c2)cc1)c1ccc(F)cc1 > 50 µM
CCOc1ccc(NC(=O)c2nc3c(=O)[nH]c4cc(C)ccc4n3n2)cc1 > 50 µM
Fc1ccccc1N1CCN(c2ncc3c(n2)CCN(Cc2ccccn2)C3)CC1 > 50 µM
N[C@@H](Cc1ccccc1)C(=O)N1CCC2(CC1)CN(C(=O)c1ccc(Cl)cc1)CCO2 > 50 µM
CC[C@H](C)[C@H](NC(=O)[C@H]([C@@H](C)CC)N(C)C(C)=O)C(=O)N[C@H](C(=O)N[C@@H](CC(C)C)C(=O)C1(C)CO1)[C@@H](C)O (stereo partly specified) > 50 µM
O=C(NC1CCCC1)C1CC(=O)N(c2cccc(-c3noc(-c4cccs4)n3)c2)C1 (stereo unspecified) > 50 µM
N#Cc1ccc(NC(=O)Nc2cccn(Cc3ccccc3Br)c2=O)cc1 > 50 µM
CC(C)N1CC2CN(Cc3ccc(Cl)cc3)CCN2Cc2ccccc21 (stereo unspecified) > 50 µM
Nc1nc(-c2ccc[nH]2)cs1 > 50 µM
CC(=O)c1ccc(N2C(=O)N(Cc3cccc([N+](=O)[O-])c3)c3ccccc3S2(=O)=O)cc1 > 50 µM
Cc1ccc(-c2csc(-n3ncc(C(=O)N4CCN(C(=O)Nc5cccc6ccccc56)C(C)C4)c3C(C)C)n2)cc1 (stereo unspecified) > 50 µM
O=C(Nc1ccc(-c2nnc3n2CCCCC3)cc1)c1ccc2c(c1)OCO2 > 50 µM
COc1ccc(CNC(=O)C(C)n2nc(-c3ccco3)c(-c3cc(C)no3)cc2=O)cc1 (stereo unspecified) > 50 µM
CCN(CC)c1nc(F)c2c(c1F)S(=O)(=O)CCN2Cc1ccccc1 > 50 µM
FC(F)(F)c1ccccc1CCN1CCc2nc3ncc(Cl)cc3cc2C1 > 50 µM
CC(=O)CN1CC2(CCN(Cc3ccc(F)cc3)CC2)COc2ccccc2S1(=O)=O > 50 µM
COc1ccc(C(=O)NCC(c2ccc3c(c2)CCCN3C)N2CCCC2)cc1 (stereo unspecified) > 50 µM
C/C1=C/C=C/[C@H](C)[C@H](O)[C@@H](C)[C@@H](O)[C@@H](C)[C@H](O)[C@H](C)[C@@H](O)[C@@H](C)/C=C(/C)C(=O)c2c(O)c(C)cc3c2C(=O)C=C(NC1=O)C3=O > 50 µM
COc1ccc(-c2nc(SCC(=O)Nc3ccc(Cl)cc3F)n[nH]2)cc1 > 50 µM
CC(=O)[C@H]1c2c(c(O)c3c(O)cccc3c2-c2c3c(c(O)c4c(O)cccc24)C(=O)C[C@](C)(O)[C@H]3C(C)=O)C(=O)C[C@]1(C)O > 50 µM

IC50, active:
CCC(C)c1ccc(-c2csc(Cn3c(CN4CCN(C)CC4)nc4ccccc4c3=O)n2)cc1 (stereo unspecified) 1.63 µM
CC(c1ccccc1)n1c(-c2ccc(F)cc2)nc2c(c(=O)c3ccccc3n2C)c1=O (stereo unspecified) 2.06 µM
N#Cc1ccc(-c2ccc(OCC(=O)Nc3ccc4c(c3)OCO4)cc2)cc1 3.89 µM
CCOc1ccc2c(c1)c(=O)c(C(=O)c1ccccc1)cn2CC(=O)Nc1ccc2c(c1)OCCO2 21.2 µM
O=S(=O)(c1cccc(F)c1)N1CCN(c2nnnn2-c2ccccc2)CC1 31.4 µM
O=c1[nH]c(C2CCN(S(=O)(=O)c3ccc(S(=O)(=O)NC4CCCCC4)cc3)CC2)nc2c1nnn2Cc1c(Cl)cccc1Cl 12.1 µM
CCc1ccc(-n2c(=O)c3ccccc3n(CC(=O)NCCC3=CCCCC3)c2=O)cc1 6.68 µM
O=C(Nc1cccc(F)c1)C1CCCN(S(=O)(=O)N2CCCCCC2)C1 (stereo unspecified) 36.4 µM
COc1ccc(C(=O)NCc2csc3ccccc23)cc1 45.2 µM
CCCc1nc2c(sc3nc4c(cc32)COC(C)(C)C4)c(=O)n1CC(=O)Nc1ccccc1C 39.7 µM
CCc1ccc2[nH]c3c(c(=O)c2c1)CN(CC(=O)NCc1ccc2c(c1)OCO2)CC3 35.5 µM
COCCCNC(=O)c1ccc(Cn2c(=O)c3ccccc3n(CC(=O)Nc3ccc(OC)cc3)c2=O)cc1 23.9 µM
COc1ccc(C(=O)Nc2nc(-c3ccc4c(c3)NC(=O)CO4)c(C)s2)cc1OC 1.68 µM
O=C(NCc1ccccc1Cl)c1ccc(-c2nnc(-c3ccccc3)o2)cc1 1.52 µM
Cc1ccc(-c2nc(NC(=O)Nc3ccc(Cl)cc3)sc2C)cc1 5.88 µM
CCCC1Cc2c(sc3nc(SCC)nc(N)c23)CO1 (stereo unspecified) 13.8 µM
CC1CCN(S(=O)(=O)c2ccc(C(=O)Nc3ccc(S(N)(=O)=O)cc3)cc2)CC1 29.7 µM
CN=C(N)NCCC/C=C/CCCC(C)CC(C)C1OC(=O)/C=C/C(C)C(O)CC(O)C(C)C(O)CCC(C)C(O)CC2(O)OC(CC(OC(=O)CC(=O)O)CC(O)CC(O)C(C)C(O)/C=C/C1C)CC(O)C2O (stereo unspecified) 27.5 µM
Cn1c2ccccc2c2ncn(Cc3ccc(F)cc3)c(=O)c21 27.3 µM
CCc1ccc(NC(=O)Cc2nnc(-c3ccc4ncccc4c3)o2)cc1 28.4 µM
O=C(Nc1ccccc1Sc1ncc(-c2ccc(Cl)cc2)cn1)c1ccco1 4.01 µM
Cc1cc(N2CCN(c3ncccn3)CC2)nc2ccc(NC(=O)c3ccncc3)cc12 2.68 µM
O=C(NCc1ccccc1)c1ccc2c(=O)n(-c3ccccc3)c(=O)[nH]c2c1 16 µM
O=C1c2c(O)cccc2C2(Oc3cccc4cccc(c34)O2)C2OC12 (stereo unspecified) 31.8 µM
CCOc1ccc(NC(=O)Cn2cnc(S(=O)(=O)N3CCc4ccccc43)c2)cc1 27.4 µM
